Here are results for 67 molecules from the OPERA property sets (Mansouri et al. 2018).

≈ marks a conversion by molar mass, not a printed value.

Conditions in the first series: not given
As for `CC(=O)N=c1sc(S(N)(=O)=O)nn1C`, the solubility (as a rule, how much of the substance goes into solution per volume) worked out at 14.8 mM (≈ 3.5 mg/mL).

Molecule `Cc1cccc(Br)c1` came in with a solubility of 0.3 mM (≈ 0.0513 mg/mL).

In the case of `c1ccc(N=NNc2ccccc2)cc1`, the solubility is 2.54 mM (≈ 0.5 mg/mL).

In the case of `Cn1c(=O)[nH]c2[nH]c(=O)[nH]c2c1=O`, the solubility is 27.5 mM (≈ 5 mg/mL).

Consider `COc1cc(NS(=O)(=O)c2ccc(N)cc2)nc(C)n1`, for which the solubility stood at 2.86 mM (≈ 0.843 mg/mL).

`CCC(N)Cc1c[nH]c2ccccc12` (configuration not stated): the solubility is 2.71 mM (≈ 0.51 mg/mL).

`CCOc1ccc(C(=O)OCCN(CC)CC)cc1` yielded a solubility of 1.93 mM (≈ 0.512 mg/mL).

`ClCCCCCl` returned a solubility of 120 mM (≈ 15.3 mg/mL).

The molecule `S=c1[nH]cnc2[nH]cnc12` gave a solubility of 450 mM (≈ 68.5 mg/mL).

As to `CCC[C@H]1CCCCN1`, the solubility was determined as 141 mM (≈ 18 mg/mL).

`OC[C@H]1O[C@H](OC[C@H]2O[C@H](O[C@]3(CO)O[C@H](CO)[C@@H](O)[C@@H]3O)[C@H](O)[C@@H](O)[C@@H]2O)[C@H](O)[C@@H](O)[C@H]1O` showed a solubility of 402 mM (≈ 203 mg/mL).

Staying with this series, now noted: 20 °C.
Consider `CC(C)Cl`, for which the solubility worked out at 39.5 mM (≈ 3.1 mg/mL).

Turning to `O=C1C=C2CC3(O)COc4c(ccc(O)c4O)C3=C2C=C1O` (configuration not stated), the solubility turned out to be 2 mM (≈ 0.6 mg/mL).

Take `CC1CNCCN1` (configuration not stated): the solubility worked out at 4340 mM (≈ 435 mg/mL).

Molecule `Clc1c(Cl)c(Cl)c2c(c1Cl)Oc1c(Cl)c(Cl)c(Cl)c(Cl)c1O2` showed a solubility of 8.7e-10 mM (≈ 4e-10 mg/mL).

Turning to `O=C(O)c1nc[nH]c1C(=O)O`, the solubility was found to be 3.2 mM (≈ 0.5 mg/mL).

With `Clc1ccc(-c2cccc(Cl)c2Cl)c(Cl)c1`, the solubility was determined as 0.000208 mM (≈ 6.08e-05 mg/mL).

With `CC(CCl)OC(C)CCl` (configuration not stated), the solubility turned out to be 9.94 mM (≈ 1.7 mg/mL).

`COC(=O)C(Cl)Cc1ccc(Cl)cc1` (configuration not stated) returned a solubility of 0.172 mM (≈ 0.04 mg/mL).

For the molecule `Clc1cc(Cl)c(-c2c(Cl)cc(Cl)c(Cl)c2Cl)cc1Cl`, the solubility came out at 1.24e-05 mM (≈ 4.9e-06 mg/mL).

As for `CCCCCCCC(=O)OC`, the solubility is 0.407 mM (≈ 0.0644 mg/mL).

As to `CCOP(=O)(OCC)SCC(=O)NC(C)(C)C#N`, the solubility was 238 mM (≈ 70 mg/mL).

For the molecule `COP(=S)(OC)SCc1nc(N)nc(N)n1`, the solubility is 0.853 mM (≈ 0.24 mg/mL).

In turn, `O=C(O)c1ccccc1C(c1ccc(O)cc1)c1ccc(O)cc1` yielded a solubility of 0.546 mM (≈ 0.175 mg/mL).

`CCSCc1ccccc1OC(=O)NC` yielded a solubility of 8.08 mM (≈ 1.82 mg/mL).

On to `O=c1[nH]c(=O)c2[nH]c(=O)[nH]c2[nH]1`, for which the solubility was 0.353 mM (≈ 0.0593 mg/mL).

In turn, `CC(C)(S)[C@@H](N)C(=O)O` yielded a solubility of 744 mM (≈ 111 mg/mL).

Consider `COc1ccc2c3c1O[C@H]1[C@@H](O)C=C[C@H]4[C@@H](C2)N(C)CC[C@@]341`, for which the solubility stood at 30.1 mM (≈ 9 mg/mL).

Molecule `COc1ccc(C=O)c(C(=O)O)c1OC` displayed a solubility of 11.9 mM (≈ 2.5 mg/mL).

Take `CC(=O)C=C(C)C`: the solubility was 294 mM (≈ 28.9 mg/mL).

`CCc1ccc(CC)cc1` gave a solubility of 0.185 mM (≈ 0.0248 mg/mL).

In the case of `CCC(C)N` (configuration not stated), the solubility was 1530 mM (≈ 112 mg/mL).

In turn, `Nc1cnn(-c2ccccc2)c(=O)c1Cl` yielded a solubility of 1.8 mM (≈ 0.4 mg/mL).

In turn, `N[C@H](CCCC(=O)O)C(=O)O` gave a solubility of 13.7 mM (≈ 2.2 mg/mL).

In the case of `COCCCNc1nc(NC(C)C)nc(SC)n1`, the solubility is 1.18 mM (≈ 0.32 mg/mL).

`CCC(C)OC(C)=O` (configuration not stated) came in with a solubility of 53.4 mM (≈ 6.2 mg/mL).

Still in this series, the particulars now being: 21 °C.
For the molecule `O=C(O)CCCCCCCCCCCC(=O)O`, the solubility was 6.14 mM (≈ 1.5 mg/mL).

The molecule `CC12CCC(CC1)C(C)(C)O2` had a solubility of 17.2 mM (≈ 2.65 mg/mL).

Molecule `NC(=S)c1c(Cl)cccc1Cl` displayed a solubility of 4.61 mM (≈ 0.95 mg/mL).

Still in this series, the particulars now being: 22 °C.
Take `C1CCN2C[C@@H]3C[C@@H](CN4CCCC[C@@H]34)[C@H]2C1`: the solubility worked out at 13 mM (≈ 3.04 mg/mL).

On to `CCOP(=S)(OCC)N1C(=O)c2ccccc2C1=O`, for which the solubility stood at 0.444 mM (≈ 0.133 mg/mL).

`CNC(=O)ON=C(CSC)C(C)(C)C` showed a solubility of 23.8 mM (≈ 5.2 mg/mL).

`Cc1ccccc1Oc1cccnn1` yielded a solubility of 10.7 mM (≈ 2 mg/mL).

The series is the same for the next values; noted with them: 23 °C.
As to `O=C(O)[C@@H](CO)c1ccccc1`, the solubility stood at 119 mM (≈ 19.8 mg/mL).

Regarding `Nc1nc(N)[nH]c(=O)n1`, the solubility amounted to 0.59 mM (≈ 0.075 mg/mL).

`C[C@]12CC[C@@H](O)C[C@@H]1CC[C@@H]1[C@@H]2[C@H](O)C[C@]2(C)C(=O)CC[C@@H]12` displayed a solubility of 0.255 mM (≈ 0.0782 mg/mL).

In turn, `COP(=O)(OC)OC1=C(Cl)C2C=CCC12` (configuration not stated) showed a solubility of 9.97 mM (≈ 2.5 mg/mL).

Staying with this series, now noted: 24 °C.
As to `CN(C)CCCN1c2ccccc2Sc2ccccc21`, the solubility turned out to be 0.0499 mM (≈ 0.0142 mg/mL).

Take `O=NN1CCCCC1`: the solubility stood at 670 mM (≈ 76.5 mg/mL).

Staying with this series, now noted: 25 °C.
The molecule `COP(=S)(NC(C)C)Oc1ccc(Cl)cc1Cl` (configuration not stated) had a solubility of 0.0159 mM (≈ 0.005 mg/mL).

Take `NCCC(=O)O`: the solubility worked out at 6120 mM (≈ 545 mg/mL).

Molecule `Clc1ccc2c(c1)Oc1ccccc1O2` came in with a solubility of 0.00146 mM (≈ 0.000319 mg/mL).

Regarding `O=C1CSC(=S)N1`, the solubility came to 16.9 mM (≈ 2.25 mg/mL).

In turn, `CCC(C)c1cc([N+](=O)[O-])cc([N+](=O)[O-])c1OC(C)=O` (configuration not stated) returned a solubility of 7.79 mM (≈ 2.2 mg/mL).

The molecule `Cc1ccc(S(N)(=O)=O)cc1` registered a solubility of 18.4 mM (≈ 3.16 mg/mL).

`CCOC(=S)SSC(=S)OCC` gave a solubility of 0.0114 mM (≈ 0.00276 mg/mL).

Turning to `CCc1ccc(O)cc1`, the solubility stood at 33.5 mM (≈ 4.09 mg/mL).

`O=C(O)c1cccc(O)c1`: the solubility is 52.5 mM (≈ 7.25 mg/mL).

`Cc1cc2ccccc2cc1C` had a solubility of 0.0127 mM (≈ 0.00199 mg/mL).

Regarding `CCCCC(C)O` (configuration not stated), the solubility was determined as 134 mM (≈ 13.7 mg/mL).

`CCC(CC)CO`: the solubility stood at 39.1 mM (≈ 4 mg/mL).

The molecule `c1cc2cccc3c4cccc5cccc(c(c1)c23)c54` gave a solubility of 1.59e-06 mM (≈ 4e-07 mg/mL).

`C1CCC2CCCCC2C1` (configuration not stated) showed a solubility of 0.00643 mM (≈ 0.000889 mg/mL).

Turning to `CC(C)(C)CO`, the solubility is 397 mM (≈ 35 mg/mL).

In turn, `C[C@]12CCc3c(ccc4cc(O)ccc34)[C@@H]1CCC2=O` came in with a solubility of 0.00571 mM (≈ 0.00152 mg/mL).

As to `Cc1cnc2c(ccc3c(C)c(C)cnc32)c1C`, the solubility was 0.00639 mM (≈ 0.00151 mg/mL).

The molecule `C1OCOCO1` displayed a solubility of 1940 mM (≈ 175 mg/mL).
